Source: ChEMBL document CHEMBL1152604, “Design, synthesis and biological evaluation of tripeptide boronic acid proteasome inhibitors” (Bioorg Med Chem, 2009)

Experiments:
[1] = Inhibition of chymotrypsin-like activity of mouse liver 20S proteasome
[2] = Inhibition of peptidylglutamyl peptide-hydrolyzing activity of mouse liver 20S proteasome
[3] = Inhibition of trypsin-like activity of mouse liver 20S proteasome
BGC-823 = assay: Cytotoxicity against human BGC823 cells after 72 hrs by MTT assay; format: functional, cell-based; conditions: BGC-823, 72 h
HL-60 = assay: Cytotoxicity against human HL60 cells after 72 hrs by MTT assay; format: functional, cell-based; conditions: HL-60, 72 h
U-266 = assay: Cytotoxicity against human U266 cells after 72 hrs by MTT assay; format: functional, cell-based; conditions: U-266, 72 h
BXPC-3 = assay: Cytotoxicity against human BxPC3 cells after 72 hrs by MTT assay; format: functional, cell-based; conditions: BXPC-3, 72 h

SMILES	IC50 [1]	IC50 [2]	IC50 [3]	IC50 (BGC-823)	IC50 (HL-60)	IC50 (U-266)	IC50 (BXPC-3)
CC(C)C[C@@H](NC(=O)[C@H](Cc1c[nH]c2ccccc12)NC(=O)[C@H](Cc1ccccc1)NC(=O)c1cnccn1)B(O)O	> 20 nM	> 20 nM	> 20 nM				
CC(C)C[C@@H](NC(=O)[C@H](Cc1ccc2ccccc2c1)NC(=O)[C@H](Cc1ccccc1)NC(=O)c1cnccn1)B(O)O	0.111 nM	3.8 nM	> 20 nM	1040 nM	7.4 nM	15.8 nM	28.7 nM
CC(C)C[C@H](NC(=O)c1cnccn1)C(=O)N[C@@H](CC(C)C)C(=O)N[C@H](CC(C)C)B(O)O	> 20 nM	> 20 nM	> 20 nM				
CC(C)C[C@H](NC(=O)[C@H](Cc1ccccc1)NC(=O)c1cnccn1)C(=O)N[C@H](CC(C)C)B1O[C@@H]2[C@@H](C[C@H]3C[C@@H]2C3(C)C)O1	0.287 nM	2.73 nM	> 20 nM				
CC(C)C[C@@H](NC(=O)[C@H](Cc1ccc2ccccc2c1)NC(=O)[C@H](Cc1ccc2ccccc2c1)NC(=O)c1cnccn1)B(O)O	0.335 nM	> 20 nM	> 20 nM	2450 nM	19.6 nM	195 nM	33.3 nM
CC(C)C[C@H](NC(=O)c1cnccn1)C(=O)N[C@@H](Cc1ccc2ccccc2c1)C(=O)N[C@H](CC(C)C)B1O[C@@H]2[C@@H](C[C@H]3C[C@@H]2C3(C)C)O1	0.37 nM	3.91 nM	> 20 nM				
CC(C)C[C@@H](NC(=O)[C@H](Cc1ccccc1)NC(=O)[C@H](Cc1ccc(O)cc1)NC(=O)c1cnccn1)B(O)O	0.263 nM	2.5 nM	> 20 nM	2460 nM	445 nM	66.2 nM	257 nM
CC(C)C[C@H](NC(=O)c1cnccn1)C(=O)N[C@@H](Cc1ccc2ccccc2c1)C(=O)N[C@H](CC(C)C)B(O)O	0.079 nM	3.63 nM	> 20 nM	600 nM	4.6 nM	9.9 nM	21.2 nM
CC(C)C[C@H](NC(=O)[C@H](Cc1ccc2ccccc2c1)NC(=O)c1cnccn1)C(=O)N[C@H](CC(C)C)B1O[C@@H]2[C@@H](C[C@H]3C[C@@H]2C3(C)C)O1	0.345 nM	14.1 nM	> 20 nM				
CC(C)C[C@H](NC(=O)c1cnccn1)C(=O)N[C@@H](CC(C)C)C(=O)N[C@H](CC(C)C)B1O[C@@H]2[C@@H](C[C@H]3C[C@@H]2C3(C)C)O1	> 20 nM	> 20 nM	> 20 nM				
CC(C)C[C@H](NC(=O)[C@H](Cc1ccccc1)NC(=O)c1cnccn1)B(O)O [BORTEZOMIB]	0.161 nM	> 20 nM	> 20 nM				
CC(C)C[C@@H](NC(=O)[C@H](Cc1ccc(O)cc1)NC(=O)[C@H](Cc1ccccc1)NC(=O)c1cnccn1)B(O)O	0.395 nM	4.01 nM	> 20 nM	5140 nM	552 nM	250 nM	445 nM
CC(C)C[C@@H](NC(=O)[C@H](Cc1ccccc1)NC(=O)[C@H](Cc1ccccc1)NC(=O)c1cnccn1)B1O[C@@H]2[C@@H](C[C@H]3C[C@@H]2C3(C)C)O1	0.402 nM	8.33 nM	> 20 nM				

Further lines, with some results ahead:

IC50 [1]	IC50 [2]	IC50 [3]	SMILES	IC50 (BGC-823)	IC50 (HL-60)	IC50 (U-266)	IC50 (BXPC-3)
0.431 nM	3.4 nM	> 20 nM	CC(C)C[C@H](NC(=O)c1cnccn1)C(=O)N[C@@H](Cc1ccccc1)C(=O)N[C@H](CC(C)C)B1O[C@@H]2[C@@H](C[C@H]3C[C@@H]2C3(C)C)O1				
> 20 nM	> 20 nM	> 20 nM	CC(C)C[C@@H](NC(=O)[C@H](Cc1c[nH]c2ccccc12)NC(=O)[C@H](Cc1ccccc1)NC(=O)c1cnccn1)B1O[C@@H]2[C@@H](C[C@H]3C[C@@H]2C3(C)C)O1				
> 20 nM	> 20 nM	> 20 nM	CC(C)C[C@@H](NC(=O)[C@H](Cc1ccccc1)NC(=O)[C@H](Cc1c[nH]c2ccccc12)NC(=O)c1cnccn1)B1O[C@@H]2[C@@H](C[C@H]3C[C@@H]2C3(C)C)O1				
0.173 nM	5.66 nM	> 20 nM	CC(C)C[C@H](NC(=O)[C@H](Cc1ccccc1)NC(=O)c1cnccn1)C(=O)N[C@H](CC(C)C)B(O)O				
0.495 nM	> 20 nM	> 20 nM	CC(C)C[C@@H](NC(=O)[C@H](Cc1ccc2ccccc2c1)NC(=O)[C@H](Cc1ccc2ccccc2c1)NC(=O)c1cnccn1)B1O[C@@H]2[C@@H](C[C@H]3C[C@@H]2C3(C)C)O1				
0.19 nM	5.14 nM	> 20 nM	CC(C)C[C@H](NC(=O)c1cnccn1)C(=O)N[C@@H](Cc1ccccc1)C(=O)N[C@H](CC(C)C)B(O)O				
0.546 nM	10.9 nM	> 20 nM	CC(C)C[C@@H](NC(=O)[C@H](Cc1ccccc1)NC(=O)[C@H](Cc1ccccc1)NC(=O)c1cnccn1)B(O)O				
0.295 nM	4.76 nM	> 20 nM	CC(C)C[C@@H](NC(=O)[C@H](Cc1ccccc1)NC(=O)[C@H](Cc1ccc(O)cc1)NC(=O)c1cnccn1)B1O[C@@H]2[C@@H](C[C@H]3C[C@@H]2C3(C)C)O1				
> 20 nM	> 20 nM	> 20 nM	CC(C)C[C@@H](NC(=O)[C@H](Cc1ccccc1)NC(=O)[C@H](Cc1c[nH]c2ccccc12)NC(=O)c1cnccn1)B(O)O				
0.22 nM	12.8 nM	> 20 nM	CC(C)C[C@H](NC(=O)[C@H](Cc1ccc2ccccc2c1)NC(=O)c1cnccn1)C(=O)N[C@H](CC(C)C)B(O)O	1720 nM	15 nM	120 nM	43.5 nM
0.335 nM	5.39 nM	> 20 nM	CC(C)C[C@@H](NC(=O)C(Cc1ccc(O)cc1)NC(=O)[C@H](Cc1ccccc1)NC(=O)c1cnccn1)B1O[C@@H]2[C@@H](C[C@H]3C[C@@H]2C3(C)C)O1 (some centres undefined)				
0.443 nM	> 20 nM	> 20 nM	CC(C)C[C@@H](NC(=O)[C@H](Cc1ccc2ccccc2c1)NC(=O)[C@H](Cc1ccccc1)NC(=O)c1cnccn1)B1O[C@@H]2[C@@H](C[C@H]3C[C@@H]2C3(C)C)O1				
0.417 nM	4.43 nM	> 20 nM	CC(C)C[C@@H](NC(=O)[C@H](Cc1ccccc1)NC(=O)[C@H](Cc1ccc2ccccc2c1)NC(=O)c1cnccn1)B(O)O	2800 nM	10 nM	53 nM	31.8 nM
0.22 nM	> 20 nM	> 20 nM	CC(C)C[C@@H](NC(=O)[C@H](Cc1ccccc1)NC(=O)[C@H](Cc1ccc2ccccc2c1)NC(=O)c1cnccn1)B1O[C@@H]2[C@@H](C[C@H]3C[C@@H]2C3(C)C)O1				
